Experimental data as given in patent publication US11317631B2, “Natamycin compositions and uses thereof” (Arec Crop Protection B.V., priority 2016, dated 2022).
Read-outs that look alike come from different tables or passages of the source.

Legend:
Saccharomyces cerevisiae [1] = experiment: Bioavailability: filter disc inhibition zone on yeast agar plates (Examples 15 and 16); format: cell-based; settings: 10 μl of 3 mM natamycin
Experimental: Saccharomyces cerevisiae (at least 10^5 cfu/ml) was distributed on Petri dishes with a diameter of 145 mm containing 30 ml Potato Dextrose Agar (PDA; Carl Roth; pH of about 6) using sterilized swabs. […] Following the application of a filter, Petri dishes were incubated for 16 h h in a refrigerator at 4° C. to allow diffusion of natamycin into the agar. After 16 h the filter discs were removed from the agar and the Petri dishes were incubated upside down in a stove at 30° C. […] After 24 h incubation in the stove the size of the inhibition zone was determined using a digital caliper gauge. The data are presented as square mm and are an average of six replicas. The effect of 3 mM natamycin on yeast growth in Petri dishes was determined as described herein above. Numbers represent surface of inhibition zones expressed in square mm. Same methods as described above in Example 15. The effect of 3 mM natamycin on yeast growth in Petri dishes was determined as described herein above, unless otherwise indicated.

Saccharomyces cerevisiae [2] = experiment: Bioavailability: filter disc inhibition zone, disc moved to a new plate after 24 h (Example 17); format: cell-based; settings: 50 μl of 3 mM natamycin
Experimental: Saccharomyces cerevisiae (at least 10^5 cfu/ml) was distributed on Petri dishes with a diameter of 90 mm containing 10 ml PDA agar (Carl Roth, pH about 6) using sterilized swabs. Filter paper discs (Whatman) with a diameter of 6 mm were loaded with 50 μl of a solution containing a concentration of 3 mM natamycin. The size of the inhibition zone is a result of the natamycin released from the sample disc. After 24 h of incubation in the stove the size of the inhibition zone was measured using a digital caliper gauge. After measuring, the filter discs were removed and replaced on a new Petri dish similar to the previous one (90 mm containing 10 ml PDA agar and Saccharomyces cerevisiae (at least 10^5 cfu/ml) distributed by swabs). 24 hours after the replacement of the filters, the inhibition zone was measured again. The data are presented as square mm and are an average of four replicas.

Botrytis cinerea = experiment: Botrytis on wounded apples (Examples 18 to 20); format: in vivo
Experimental: Tested fruit: apples […] from organic origin/SKAL certified. SKAL is a semi-governmental Dutch organization that controls organic production in the Netherlands. Wounds of the apples were checked at day 3. Natamycin with different proteins and starch contents were tested at a natamycin concentration of 100 ppm. Used pathogen: Botrytis cinerea spore-suspension containing 2*10^6 spores/ml. Application: The fruit peel of the apple was damaged with a cork borer, ø 4 mm and depth 0.5 cm into the fruit, with 2 wounds per apple. 40 microliter of a freshly prepared spore suspension of B. cinerea was applied by pipette onto each wound. Subsequently, the spore-suspension was allowed to air-dry for 4 hours. Then, 50 microliter of a treatment as presented in the list above was applied by pipette to each wound. All fruits were kept at room temperature (20° C.). Wounds of the apples were checked after 3 days of incubation. The efficacy was calculated by measuring the surface area (square mm) of the rot on the apples compared to the untreated control (see Tables 31 and 32). Replicates: All treatments for the apple experiment were performed on six individual apples with two wounds each resulting in 12 wounds per treatment. This experiment was performed as described in Example 18. This experiment was performed as described in Example 19. Natamycin A and Natamycin E were used at different concentrations and data were recorded at different time points, as is indicated in Table 35.

[3] = Average particle size of natamycin batches (Example 14); format: physicochemical; settings: batches of Table 20
Source text: Methods for determining the average size of particles in a composition are known to the skilled person. For example, Hukkanen and Braatz, 2003. Sensors and Actuators B 96: 451-459, discuss varies methods that can be used for determining the average particle size in a composition, including forward light scattering and ultrasonic extinction. A preferred method is sieve analysis or laser diffraction analysis, for example using a Analysette 22-MicroTec plus laser-particle-sizer (Fritsch, Idar-Oberstein, Germany).
Several batches of crude natamcyin, prepared as described herein above, and commercial batches of purified natamycin (95%) were obtained and analysed.

[4] = BET surface area analysis; format: physicochemical; parameters: BET analysis: dose or concentration left out as unconfirmed; settings: for BET analysis: milled to a particle size of 2 μm; for BET: batches of Table 20
Experimental: Surface area may be measured by any suitable methods or techniques known in the art. For example, with respect to the variations described above, the surface area is measured by BET (also known in the art as Brunauer, Emmett and Tellers analysis theory). Using BET analysis, the surface area of the natamycin composition may be determined by physical adsorption of nitrogen (N2) gas on the surface of the natamycin composition, which is a solid. The value of the BET analysis is expressed as m^2 per gram of solid material.
Brunauer, Emmett, and Tellers (BET) analysis theory was used to determine the surface area (expressed as m^2/g) for Natamycin Composition A and Control Natamycin. Each sample was milled to a particle size of […] prior to BET analysis.

[5] = Saturation studies: dissolution in water with 5% polysorbate 80, HPLC peak areas; format: physicochemical; settings: water + 5% polysorbate 80, 22° C.
Experimental: Saturation studies were performed on Natamycin Composition A and Control Natamycin, both at 25% (w/w %) suspension in water. […] To prepare the samples for solubility analysis, a plastic pipet was used to add 3 drops (0.25 mL) of thoroughly shaken formulation to 10 mL of the dissolution medium. […] Then, 0.05 mL of the mobile phase was added to 0.25 mL of the filtrated natamycin aliquot. The aliquots were then injected individually onto a high performance liquid chromatography (HPLC) column and the resulting peak areas were calculated. […] The column temperature was set to 25° C. and the natamycin was detected at a wavelength of 304 nm.

[6] = Liquid phase concentration of natamycin in the suspensions (centrifugation, HPLC); format: physicochemical; settings: supernatant of suspension in water
Experimental: The supernatants were then collected and diluted 10-fold with an acetonitrile:water (3:7) solution. The concentration of natamycin in the liquid layer was then determined by injecting the samples individually onto an HPLC and comparing the UV-Vis absorption to that of a standard natamycin stock solution.

Fusarium graminearum = format: in vivo; settings: for Average Vigor: 0-10 scale

Compound: C[C@@H]1C/C=C/C=C/C=C/C=C/[C@H](O[C@@H]2O[C@H](C)[C@@H](O)[C@H](N)[C@@H]2O)C[C@@H]2O[C@](O)(C[C@@H](O)C[C@H]3O[C@@H]3/C=C/C(=O)O1)C[C@H](O)[C@H]2C(=O)O [Natamycin E, natamycin]
- Inhibition zone (Saccharomyces cerevisiae [1]; Table 24): 242 mm2
- Inhibition zone (Saccharomyces cerevisiae [1]; Table 26): 188 mm2
- Inhibition zone (Saccharomyces cerevisiae [1]; Table 27): 179 mm2
- Inhibition zone (Saccharomyces cerevisiae [1]; Table 28): 110 mm2
- Inhibition zone (Saccharomyces cerevisiae [2]; 24 h): 480 mm^2
- Inhibition zone (Saccharomyces cerevisiae [2]; 48 h (disc replaced on a new plate after 24 h)): 298 mm^2
- Efficacy (Botrytis cinerea; Table 32, 100 ppm natamycin, day 3): 54%
- Efficacy (Botrytis cinerea; Table 34, day 3): 75%
- Efficacy (Botrytis cinerea; Table 34, day 5): 58%
- Efficacy (Botrytis cinerea; Table 34, day 7): 53%
- Efficacy (Botrytis cinerea; Table 34, day 9): 42%
- Efficacy (Botrytis cinerea; Table 35, 100 ppm, day 3): 84%
- Efficacy (Botrytis cinerea; Table 35, 100 ppm, day 5): 41%
- Efficacy (Botrytis cinerea; Table 35, 100 ppm, day 7): 12%
- Efficacy (Botrytis cinerea; Table 35, 2000 ppm, day 3): 100%
- Efficacy (Botrytis cinerea; Table 35, 2000 ppm, day 5): 62%
- Efficacy (Botrytis cinerea; Table 35, 2000 ppm, day 7): 50%
- D0.5 (average particle size of the particles) [3]: 14.4 μm

Compound: C[C@@H]1C/C=C/C=C/C=C/C=C/[C@H](O[C@@H]2O[C@H](C)[C@@H](O)[C@H](N)[C@@H]2O)C[C@@H]2O[C@](O)(C[C@@H](O)C[C@H]3O[C@@H]3/C=C/C(=O)O1)C[C@H](O)[C@H]2C(=O)O [Control Natamycin, comprising natamycin batch # 140206]
- BET analysis [4]: 7.7 m^2/g

Compound: C[C@@H]1C/C=C/C=C/C=C/C=C/[C@H](O[C@@H]2O[C@H](C)[C@@H](O)[C@H](N)[C@@H]2O)C[C@@H]2O[C@](O)(C[C@@H](O)C[C@H]3O[C@@H]3/C=C/C(=O)O1)C[C@H](O)[C@H]2C(=O)O [Natamycin 140206, natamycin]
- BET [4]: 7.73 m^2/g
- Inhibition zone (Saccharomyces cerevisiae [1]; Table 22): 167 mm^2

Compound: C[C@@H]1C/C=C/C=C/C=C/C=C/[C@H](O[C@@H]2O[C@H](C)[C@@H](O)[C@H](N)[C@@H]2O)C[C@@H]2O[C@](O)(C[C@@H](O)C[C@H]3O[C@@H]3/C=C/C(=O)O1)C[C@H](O)[C@H]2C(=O)O [Control Natamycin, natamycin]
- HPLC peak area ([5]; 20 s): 3966 mAUs
- HPLC peak area ([5]; 60 s): 4077 mAUs
- HPLC peak area ([5]; 300 s): 4005 mAUs
- Natamycin in the liquid phase [6]: 68 µg/mL
- average BET surface area ([4]; average of the trials of Table 4): 8.5 m^2/g
- Number of plants at last count (Fusarium graminearum; 2.5 g AI/100 kg): 47
- Plant loss (Fusarium graminearum; 2.5 g AI/100 kg): 52%
- Average Vigor (Fusarium graminearum; 2.5 g AI/100 kg): 7.9
- Number of plants at last count (Fusarium graminearum; 5 g AI/100 kg): 45
- Plant loss (Fusarium graminearum; 5 g AI/100 kg): 52%
- Average Vigor (Fusarium graminearum; 5 g AI/100 kg): 7.8
- Number of plants at last count (Fusarium graminearum; 10 g AI/100 kg): 36
- Plant loss (Fusarium graminearum; 10 g AI/100 kg): 62%
- Average Vigor (Fusarium graminearum; 10 g AI/100 kg): 7.5
- Number of plants at last count (Fusarium graminearum; 20 g AI/100 kg): 45
- Plant loss (Fusarium graminearum; 20 g AI/100 kg): 52%
- Average Vigor (Fusarium graminearum; 20 g AI/100 kg): 7.7

Compound: C[C@@H]1C/C=C/C=C/C=C/C=C/[C@H](O[C@@H]2O[C@H](C)[C@@H](O)[C@H](N)[C@@H]2O)C[C@@H]2O[C@](O)(C[C@@H](O)C[C@H]3O[C@@H]3/C=C/C(=O)O1)C[C@H](O)[C@H]2C(=O)O [Natamycin F, natamycin]
- BET [4]: 9.36 m^2/g
- Inhibition zone (Saccharomyces cerevisiae [1]; Table 21, 16 h 4° C. then 24 h 30° C.): 183 mm^2
- Inhibition zone (Saccharomyces cerevisiae [1]; Table 25): 142 mm2
- Inhibition zone (Saccharomyces cerevisiae [1]; Table 29): 100 mm2
- Efficacy (Botrytis cinerea; Table 33, 100 ppm natamycin, day 3): 60.2%
- D0.5 (average particle size of the particles) [3]: 15.3 μm

Compound: C[C@@H]1C/C=C/C=C/C=C/C=C/[C@H](O[C@@H]2O[C@H](C)[C@@H](O)[C@H](N)[C@@H]2O)C[C@@H]2O[C@](O)(C[C@@H](O)C[C@H]3O[C@@H]3/C=C/C(=O)O1)C[C@H](O)[C@H]2C(=O)O [Control Natamycin, comprising natamycin F]
- BET analysis [4]: 9.4 m^2/g
